Assay results taken from article PMC6421539, “Discovery of Soft-Drug Topical Tool Modulators of Sphingosine-1-phosphate Receptor 1 (S1PR1)” (ACS Medicinal Chemistry Letters, 2019).
“Also recorded” adds a separate entry of the source. Read-outs that look alike come from different tables or passages of the source. Blank lines part the entries; values can stand above or below the compound they belong to.

Legend:
[1] = Chemical stability in DMSO solution; type: physicochemical; details: for stability (% decrease in purity): Table 2, stored in DMSO solution for 28 days; for stability (% decrease in purity) / stability (% decrease): n = 1; for stability (% decrease): Table 3, % loss in purity when stored in DMSO solution for 28 days; for isomerization / hydrolysis / chemical instability in DMSO solution (in words): 28 days
From the text: Although several compounds shown in Table 2 satisfy the rapid clearance requirements of a soft drug and retain primary activity, none were suitable for progression into in vivo studies due to chemical stability liabilities. […] The instability in solution represented a major development hurdle as topical drugs are usually stored in solution or suspensions (cream, ointment, paste, lotion, or gels), rather than in solid form, as is the case for oral drugs. We turned our attention to identifying the impurity and preventing its formation.
Decomposition studies used ^1H NMR to monitor the increase in the acetic acid methyl group peak over 28 days (see Supporting Information). […] However, the chemical stability was poor when heteroatoms were alpha to the carbonyl of the acetate group 10d,e, and these compound degraded on standing within 24 h, preventing full characterization.

[2] = CHI logD by reverse-phase HPLC; type: physicochemical; details: compared to 4a
[3] = NMR study of isomerisation after incubation in DMSO-d6 for 6 months; type: physicochemical; details: 1H NMR integration
From the text: The NOESY spectrum of the mixture indicated no changes in the arrangement of the imine (no correlation was observed between H^11–H^19 or H^11′–H^19′).

[4] = Human liver hepatocyte stability, intrinsic clearance; type: in vitro ADME
Procedure: the exponential decay and consequently the rate constant (k) from the ratio of peak area of test compound to internal standard at each timepoint. The rate of intrinsic clearance (CLi) of each test compound was then calculated using the following calculation:
CLi (mL/min/g liver) = k x V x Microsomal protein yield
Where V (mL/mg protein) is the incubation volume/mg protein added and microsomal protein yield is taken as 52.5 mg protein per g liver. Verapamil (0.5 μM) was used as a positive control to confirm acceptable assay performance. Experiments were performed using a single timecourse experiment.
All values reported correspond to n of 1.
Human Liver Hepatocyte (HLH) stability experiments
Cryopreserved vials of human cryopreserved hepatocytes, supplied by Life Technologies, were thawed according to manufacturer’s instructions and cells resuspended in Williams Medium E (WME) containing cell maintenance supplement pack (CM4000, Life Technologies). Hepatocytes were incubated in suspension (0.5 million cells/mL) in 48 well non-collagen coated cell culture plates for 10 minutes at 37 °C, 5% CO 2. […] The response (area ratio of test compound to internal standard) was plotted against time using an exponential decay model and rate of disappearance calculated. […]
The half life (T½) of each test compound was determined using the following equation: […]

[5] = Metabolite identification in human skin S9 fraction; type: in vitro ADME; details: incubation with human skin S9 fraction; n = 1
From the text: (§1) Based on the stability of (Z,Z)-9k in DMSO over 28 days (Table 2), it is likely this hydrolysis is enzymatically driven. We then performed metabolite identification studies using (Z,Z)-9k in human hepatocytes to confirm the routes of clearance of our S1PR1 modulators.

[6] = Topical pharmacokinetic experiment in mice; type: in vivo; details: for Mean concentration in blood: female Balb/c mice, topical 10a 1% w/v, n=3, LLoQ = 1 ng/mL, scaled LLoQ 10 ng/mL; for concentration at 2 h / concentration at 8 h: female, Balb/c, mouse, 22.5 µL of 1% w/v 10a; for concentration at 2 h / concentration at 8 h / concentration in blood: mice, topical 22.5 μL of 1% 10a in propylene glycol/ethanol 7/3
[7] = Glutathione trapping experiment in human liver microsomes; type: in vitro ADME; details: 10 µM, 90 minutes
Procedure: Concentration (ng/mL) Scaled concentration (ng/mL) Mean concentration […]
Mouse 1 Mouse 2 Mouse 3 Mouse 1 Mouse 2 Mouse 3
2h-post application < LLoQ < LLoQ < LLoQ < LLoQ < LLoQ < LLoQ < LLoQ […]
Mouse 4 Mouse 5 Mouse 6 Mouse 4 Mouse 5 Mouse 6
8h-post application < LLoQ < LLoQ < LLoQ < LLoQ < LLoQ < LLoQ < LLoQ […]
Scaled LLoQ = dilution factor * LLoQ = 10*1 = 10 ng/mL
Skin concentrations for 10a
Test compound (10 µM) was incubated with 0.5 mg/mL human liver microsomes (Mixed Gender, Life Technologies) in 50 mM potassium phosphate buffer, pH 7.4 in the presence of either NADPH (8mg/mL) alone, glutathione alone or NADPH plus glutathione. Reactions are initiated by addition of 5 µL of 1 mM test compound (final concentration 10 µM, 1% solvent). Immediately, an aliquot (100 µL) of the incubation mixture was removed and mixed with acetonitrile (200 µL) to stop the reaction. A further 100 µL aliquot is removed at 90 minutes. After addition of 100 µL of water, the samples were centrifuged to sediment precipitated protein and the plates then sealed prior to analysis using a Xevo QTof Quadrupole Time-of-Flight Mass Spectrometer (Waters corporation, USA). Detection of metabolites is performed by analysis with MetabolynxXS and by manual data
(1 picture or pasted object on this page, not shown here)

[8] = Metabolite identification in human hepatocytes; type: in vitro ADME; details: n = 1
From the text: as §1

[9] = set-up: method as in PMID 20089952; details: 0.5 mg/day; cited from earlier work

Compound: CCC/N=C1\S/C(=C\c2ccc(O)cn2)C(=O)N1c1ccccc1C [Compound 9i]
- stability (% decrease in purity) [1]: 4%

Compound: CCC/N=C1\S/C(=C\c2ccc(O)c(Br)c2)C(=O)N1c1ccccc1C [Compound 9f]
- stability (% decrease in purity) [1]: 16%

Compound: CCC/N=C1\S/C(=C\c2ccc(OC[C@H](O)CO)c(Cl)c2)C(=O)N1c1ccccc1C [ponesimod, reference compound]
- stability (% decrease) [1]: 0%

Compound: CCC/N=C1\S/C(=C\c2ccc(O)c(Cl)c2)C(=O)N1c1ccccc1O [Compound 4h]
- reduction in CHIlogD [2]: 1.1 log units

Compound: CCC/N=C1\S/C(=C\c2ccc(O)c(Cl)c2)C(=O)N1C1CCN(C)C(=O)C1 (stereo not drawn) [Compound 4f]
- reduction in CHIlogD [2]: 3 log units

Compound: CCC/N=C1\S/C(=C\c2ccc(O)c(C#N)c2)C(=O)N1c1ccccc1C [Compound 9h]
- impurity (E isomer) share of the mixture [3]: 32%
- stability (% decrease in purity) [1]: 20%
- H Heps Cl (intrinsic clearance in human liver hepatocytes) ([4]; 0.5 μM test compound, n = 1): <0.5 mL/min/g

Compound: CCC/N=C1\S/C(=C\c2ccc(O)cc2)C(=O)N1c1ccccc1C [Compound 9j]
- isomerization / hydrolysis / chemical instability in DMSO solution (in words) [1]: stable over a 28-day period
- stability (% decrease in purity) [1]: 0%

Compound: CCC/N=C1\S/C(=C\c2ccc(O)c(C(C)C)c2)C(=O)N1c1ccccc1C [Compound 9l]
- stability (% decrease in purity) [1]: 3%

Compound: CCC/N=C1\S/C(=C\c2ccc(O)c(C)c2)C(=O)N1c1ccccc1C [Compound 9k]
- stability (% decrease in purity) [1]: 3%
- hepatic clearance as % liver blood flow ([4]; corresponds to intrinsic clearance 31 mL/min/g, if good in vitro to in vivo correlation): 97 % liver blood flow
- Mean concentration in blood ([6]; 2h-post application): < LLoQ
- Mean concentration in blood ([6]; 8h-post application): < LLoQ
- concentration at 2 h ([6]; skin, 2 h, read-out: concentration in the skin): 134 µM
- concentration at 8 h ([6]; skin, 8 h, read-out: concentration in the skin): 101 µM
- concentration in blood ([6]; 2 h): LLoQ
- concentration in blood ([6]; 8 h): LLoQ
- metabolites identified [8]: glucuronide conjugation product, hydroxylation products, and hydroxylation with sulfation metabolites

Compound: CCC/N=C1\S/C(=C\c2ccc(O)c(Cl)c2)C(=O)N1c1ccccc1C [Compound 4a]
- stability (% decrease in purity) [1]: 6%

Compound: CCCCCCCCc1ccc(CCC(N)(CO)CO)cc1 [fingolimod]
- steady state systemic concentration Cmax [9]: 3.1 ng/mL

Compound: CCC/N=C1\S/C(=C\c2ccc(O)c(C(F)(F)F)c2)C(=O)N1c1ccccc1C [Compound 9g]
- stability (% decrease in purity) [1]: 10%

Further lines, with some results ahead:

- stability (% decrease) [1]: 0%
Compound: CCC/N=C1\S/C(=C\c2ccc(OC(=O)CCO)c(C)c2)C(=O)N1c1ccccc1C [Compound 10f]
- isomerization / hydrolysis / chemical instability in DMSO solution (in words) [1]: did not isomerize; also recorded: instability was not an issue

- stability (% decrease) [1]: 0%
- Mean concentration in blood ([6]; 2h-post application): < LLoQ
- Mean concentration in blood ([6]; 8h-post application): < LLoQ
- concentration at 2 h ([6]; whole blood, 2 h, read-out: concentrations in blood): 8.8 µM
- concentration at 8 h ([6]; whole blood, 8 h, read-out: concentrations in blood): 4.9 µM
- concentration in blood ([6]; 2 h): LLoQ
- concentration in blood ([6]; 8 h): LLoQ
Compound: CCC/N=C1\S/C(=C\c2ccc(OC(C)=O)c(C)c2)C(=O)N1c1ccccc1C [Compound 10a]
- isomerization / hydrolysis / chemical instability in DMSO solution (in words) [1]: did not isomerize; also recorded: no hydrolysis or isomerization
- metabolites identified [5]: expected phenol (Z,Z)-9k was obtained after hydrolysis of the ester group: no other metabolites were observed
- glutathione adducts or derivatives [7]: no evidence of glutathione adducts or derivatives was observed

- stability (% decrease) [1]: 1.4%
Compound: CCC/N=C1\S/C(=C\c2ccc(OC(C)=O)c(C(F)(F)F)c2)C(=O)N1c1ccccc1C [Compound 10c]

- stability (% decrease) [1]: 6.3%
Compound: CCC/N=C1\S/C(=C\c2ccc(OC(C)=O)c(Br)c2)C(=O)N1c1ccccc1C [Compound 10b]

- isomerization / hydrolysis / chemical instability in DMSO solution (in words) [1]: instability was not an issue
Compound: CCC/N=C1\S/C(=C\c2ccc(OC(=O)CCOC)c(C)c2)C(=O)N1c1ccccc1C [Compound 10g]

- time within which compound degraded on standing ([1]; heteroatom alpha to the carbonyl of the acetate group): ≤ 24 h
Compound: CCC/N=C1\S/C(=C\c2ccc(OC(=O)COC)c(C)c2)C(=O)N1c1ccccc1C [Compound 10d]
